Measured values taken from patent publication US11498899B2, “Nitrone herbicides” (FMC Corporation, priority 2016, dated 2022).

How the values were obtained:
[1] = test system: barnyardgrass (Echinochloa crus-galli); test: Test A preemergence, visual injury rating 0-100 (0 no effect, 100 complete control); format: in vivo; details: for Barnyardgrass plant response rating: 31 g ai/ha, 0 to 100 scale (0 no effect, 100 complete control), approx. 10 days; for Barnyardgrass plant response rating (0 to 100 scale): 125 g ai/ha
[2] = test system: foxtail, giant (giant foxtail, Setaria faberii); test: Test A preemergence, visual injury rating 0-100; format: in vivo; details: for Foxtail, Giant plant response rating: 31 g ai/ha, 0 to 100 scale (0 no effect, 100 complete control), approx. 10 days; for Foxtail, Giant plant response rating (0 to 100 scale): 125 g ai/ha
[3] = test system: ragweed (common ragweed, Ambrosia elatior); test: Test A preemergence, visual injury rating 0-100; format: in vivo; details: for Ragweed plant response rating: 31 g ai/ha, 0 to 100 scale (0 no effect, 100 complete control), approx. 10 days; for Ragweed plant response rating (0 to 100 scale): 125 g ai/ha
kochia (Kochia scoparia) [4] = test: Test A preemergence, visual injury rating 0-100; format: in vivo; details: for Kochia plant response rating: 31 g ai/ha, 0 to 100 scale (0 no effect, 100 complete control), approx. 10 days; for Kochia plant response rating (0 to 100 scale): 125 g ai/ha
[5] = test system: pigweed (Amaranthus retroflexus); test: Test A preemergence, visual injury rating 0-100; format: in vivo; details: for Pigweed plant response rating: 31 g ai/ha, 0 to 100 scale (0 no effect, 100 complete control), approx. 10 days; for Pigweed plant response rating (0 to 100 scale): 125 g ai/ha
[6] = test system: ryegrass, Italian (Italian ryegrass, Lolium multiflorum); test: Test A preemergence, visual injury rating 0-100; format: in vivo; details: for Ryegrass, Italian plant response rating: 31 g ai/ha, 0 to 100 scale (0 no effect, 100 complete control), approx. 10 days; for Ryegrass, Italian plant response rating (0 to 100 scale): 125 g ai/ha
rice (Oryza sativa) = test: Test B flooded paddy test, visual rating 0-100 (0 no effect, 100 complete control); details: Flood, 250 g ai/ha, applied to paddy water, rated after 13 to 15 days
[7] = test system: barnyardgrass (Echinochloa crus-galli); test: Test B flooded paddy test, visual rating 0-100; details: Flood, 250 g ai/ha, applied to paddy water, rated after 13 to 15 days
[8] = test system: ducksalad (Heteranthera limosa); test: Test B flooded paddy test, visual rating 0-100; details: Flood, 250 g ai/ha, applied to paddy water, rated after 13 to 15 days
[9] = test system: foxtail, giant (giant foxtail, Setaria faberii); test: Test A postemergence, visual injury rating 0-100; format: in vivo; details: 0 to 100 scale
[10] = test system: ragweed (common ragweed, Ambrosia elatior); test: Test A postemergence, visual injury rating 0-100; format: in vivo; details: 0 to 100 scale
[11] = test system: wheat (Triticum aestivum); test: Test A postemergence, visual injury rating 0-100; format: in vivo; details: 0 to 100 scale
kochia (Kochia scoparia) [12] = test: Test A postemergence, visual injury rating 0-100; format: in vivo; details: 0 to 100 scale
[13] = test system: pigweed (Amaranthus retroflexus); test: Test A postemergence, visual injury rating 0-100; format: in vivo; details: 0 to 100 scale
[14] = test system: blackgrass (Alopecurus myosuroides); test: Test A postemergence, visual injury rating 0-100; format: in vivo; details: 0 to 100 scale
[15] = test system: galium (catchweed bedstraw, Galium aparine); test: Test A postemergence, visual injury rating 0-100; format: in vivo; details: 0 to 100 scale
[16] = test system: ryegrass, Italian (Italian ryegrass, Lolium multiflorum); test: Test A postemergence, visual injury rating 0-100; format: in vivo; details: 0 to 100 scale
corn (Zea mays) = test: Test A postemergence, visual injury rating 0-100; format: in vivo; details: 0 to 100 scale
[17] = test system: barnyardgrass (Echinochloa crus-galli); test: Test A postemergence, visual injury rating 0-100; format: in vivo; details: 0 to 100 scale

Structure (SMILES)	Barnyardgrass plant response rating [1]	Barnyardgrass plant response rating (0 to 100 scale) [1]	Foxtail, Giant plant response rating [2]	Foxtail, Giant plant response rating (0 to 100 scale) [2]	Ragweed plant response rating [3]	Ragweed plant response rating (0 to 100 scale) [3]	Kochia plant response rating (kochia (Kochia scoparia) [4])	Kochia plant response rating (0 to 100 scale) (kochia (Kochia scoparia) [4])	Pigweed plant response rating [5]	Pigweed plant response rating (0 to 100 scale) [5]	Ryegrass, Italian plant response rating [6]	Ryegrass, Italian plant response rating (0 to 100 scale) [6]	Rice plant response rating (0 to 100 scale) (rice (Oryza sativa))	Barnyardgrass plant response rating (0 to 100 scale) [7]	Ducksalad plant response rating (0 to 100 scale) [8]	Foxtail, Giant plant response rating ([9]; 31 g ai/ha)	Foxtail, Giant plant response rating ([9]; 125 g ai/ha)	Ragweed plant response rating ([10]; 31 g ai/ha)	Ragweed plant response rating ([10]; 125 g ai/ha)	Wheat plant response rating ([11]; 31 g ai/ha)	further results
CC1=[N+]([O-])[C@H](C(=O)Nc2cccc(F)c2F)[C@@H](c2ccc(F)c(OC(F)(F)C(F)F)c2)C1 [Compound 54, (2S,3R)—N-(2,3-Difluorophenyl)-3-[4-fluoro-3-(1,1,2,2-tetrafluoroethyoxy)phenyl]-3,4-dihydro-5-methyl-2H-pyrrole-2-carboxamide 1-oxide]	80	90	90	90	0	50	0	50	0	70	60	80	0	35	80	30	70	0	30	0	Wheat plant response rating ([11]; 125 g ai/ha): 50; Kochia plant response rating (kochia (Kochia scoparia) [12]; 31 g ai/ha): 0; Kochia plant response rating (kochia (Kochia scoparia) [12]; 125 g ai/ha): 50; Pigweed plant response rating ([13]; 31 g ai/ha): 20; Pigweed plant response rating ([13]; 125 g ai/ha): 60; Blackgrass plant response rating ([14]; 31 g ai/ha): 60; Blackgrass plant response rating ([14]; 125 g ai/ha): 70; Galium plant response rating ([15]; 31 g ai/ha): 40; Galium plant response rating ([15]; 125 g ai/ha): 70; Ryegrass, Italian plant response rating ([16]; 31 g ai/ha): 0; Ryegrass, Italian plant response rating ([16]; 125 g ai/ha): 70; Corn plant response rating (corn (Zea mays); 31 g ai/ha): 40; Corn plant response rating (corn (Zea mays); 125 g ai/ha): 70; Barnyardgrass plant response rating ([17]; 31 g ai/ha): 30; Barnyardgrass plant response rating ([17]; 125 g ai/ha): 70
CC1=[N+]([O-])[C@@H](C(=O)Nc2cccc(F)c2F)[C@H](c2cccc(OC(C)C)c2)C1 [Compound 55]	90	90	70	90	0	0	0	0	0	0	0	80	0	70	100	10	80	0	0	0	Wheat plant response rating ([11]; 125 g ai/ha): 30; Kochia plant response rating (kochia (Kochia scoparia) [12]; 31 g ai/ha): 0; Kochia plant response rating (kochia (Kochia scoparia) [12]; 125 g ai/ha): 0; Pigweed plant response rating ([13]; 31 g ai/ha): 0; Pigweed plant response rating ([13]; 125 g ai/ha): 0; Blackgrass plant response rating ([14]; 31 g ai/ha): 0; Blackgrass plant response rating ([14]; 125 g ai/ha): 80; Galium plant response rating ([15]; 31 g ai/ha): 0; Galium plant response rating ([15]; 125 g ai/ha): 30; Ryegrass, Italian plant response rating ([16]; 31 g ai/ha): 50; Ryegrass, Italian plant response rating ([16]; 125 g ai/ha): 70; Corn plant response rating (corn (Zea mays); 31 g ai/ha): 0; Corn plant response rating (corn (Zea mays); 125 g ai/ha): 0; Barnyardgrass plant response rating ([17]; 31 g ai/ha): 20; Barnyardgrass plant response rating ([17]; 125 g ai/ha): 60
